Data published in ChEMBL document CHEMBL1126393, “Design, synthesis and activity against human cytomegalovirus of non-phosphorylatable analogs of toyocamycin, sangivamycin and thiosangivamycin” (Bioorg Med Chem Lett, 1992).

Legend:
[1] = Cytotoxicity of compound in uninfected cells determined by examining the effect on growth of KBcells; type: functional, Homo sapiens
[2] = Selectivity index is the ratio of CC50 to IC50; type: functional
HFF [3] = assay: In vitro inhibition of human cytomegalovirus in HFF cells by plaque reduction assay.; type: functional, cell-based
HFF [4] = assay: Cytotoxicity of compound in uninfected cells determined by examining the effect on growth of HFF cells; type: functional, Homo sapiens
HFF [5] = assay: Visual cytotoxicity of compound in uninfected cells determined by examining the effect on growth of HFF cells; type: functional, Homo sapiens

SMILES	Cytotoxicity [1] [µM]	SI [2]	IC50 (HFF [3]) [µM]	Cytotoxicity (HFF [4]) [µM]	Cytotoxicity (HFF [5]) [µM]
CCCn1cc(C(=N)S)c2c(N)ncnc21	17	14	1.2		
Cn1cc(C(=N)S)c2c(N)ncnc21	14.7	12	1.2		
NC(=S)c1cn(COC(CO)CO)c2ncnc(N)c12			6.2	>100	
NC(=O)c1cn(COC(CO)CO)c2ncnc(N)c12			> 100	>100	
NC(=O)c1cn(COCCO)c2ncnc(N)c12			> 100	>100	
C=CCn1cc(C#N)c2c(N)ncnc21	>100		> 100		
N#Cc1cn(COCCO)c2ncnc(N)c12			> 100		>100
NC(=S)c1cn(COCCO)c2ncnc(N)c12	115	13	8.8		
C=CCn1cc(C(N)=S)c2c(N)ncnc21	19	9	2.1		
C=CCn1cc(C(N)=O)c2c(N)ncnc21	90		> 100		
Cn1cc(C#N)c2c(N)ncnc21	>100		> 100		
CCCn1cc(C#N)c2c(N)ncnc21	>100		36		
CCCn1cc(C(N)=O)c2c(N)ncnc21	90		> 100		
Cn1cc(C(N)=O)c2c(N)ncnc21	>100		> 100		
N#Cc1cn(COC(CO)CO)c2ncnc(N)c12			> 100		>100
Nc1nc2c(ncn2COC(CO)CO)c(=O)[nH]1 [GANCICLOVIR]	>100		8.4		
